These results are taken from PubChem BioAssay (NCI).

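Dose response: 5 concentrations. Exposure: 48 h. Format: 96-well plates. Endpoint: linear interpolation; highest concentration if not reached. GI50: concentration for 50% inhibition of growth. TGI: concentration producing complete growth inhibition.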

One may read the TGI as the concentration at which net growth stops. A higher TGI goes with lower sensitivity of the cells. In general, GI50 refers to the concentration that inhibits growth by half.

Common to all, as to test: DTP human tumour cell line panel, 48 h
Assay [1] has as its system COLO 205 colon.
The test system of assay [2] is SF-295 CNS.
Assay [3] concerns KM12 colon.
Assay [4] concerns HOP-62 NSCLC.
For assay [5], the system named is SF-268 CNS.
Assay [6] relates to A549 NSCLC.
The test system of assay [7] is EKVX NSCLC.
Assay [8] concerns OVCAR-4 ovarian.
Assay [9] concerns HCT-15 colon.
Assay [10] deals with SR leukemia.

`O=C1CC23CC(=O)CC2(C1)c1ccccc1C3=O` (stereo not drawn): the concentration for total growth inhibition (TGI) in [1], in assay [2], in assay [3], in assay [4], in [5] and in assay [6] was greater than 100 µM each time. Also, in assay [7], the concentration for total growth inhibition (TGI) is greater than 100 µM.
Consider `NNc1nc(-c2ccccn2)nc2sc3c(c12)CCCCCC3`, for which the GI50 is 5.07 µM in assay [1]; 10.4 µM in assay [8]; 6.46 µM in assay [3]; 8.57 µM in assay [4]; 7.25 µM in assay [5]; 3.18 µM in assay [6]. Further, the GI50 in [9] is 1.12 µM. Also, the TGI in [1] was greater than 100 µM; in assay [8] it was greater than 100 µM; in assay [3] it was 99 µM; in assay [4], greater than 100 µM; in assay [5], greater than 100 µM; in assay [6], greater than 100 µM. Besides, the TGI in [9] was greater than 100 µM.
In the case of `CCC1=C[C@H]2CN(CCc3c([nH]c4ccccc34)[C@@](C(=O)OC)(c3cc4c(cc3OC)N(C)[C@H]3[C@@](O)(C(=O)OC)[C@H](OC(C)=O)[C@]5(CC)[C@@H]6C[C@@H]6CN6CC[C@]43[C@@H]65)C2)C1`, the GI50 in assay [2] was 0.0142 µM; in [8], 0.375 µM; in [3], 0.0313 µM; in assay [4], 0.0249 µM; in [5], 0.124 µM; in assay [6], 0.0396 µM. The values for the GI50 in [9] and in [7] were 0.0738 µM and 0.0966 µM, respectively. Further, the concentration for total growth inhibition (TGI) in assay [2] is 3.15 µM; in assay [8], greater than 25 µM; in [3] it was 3.8 µM; in assay [4] it was 4.43 µM; in [5] it was 4.04 µM; in assay [6], 9.56 µM. Moreover, the TGI was 3.31 µM in [9] and greater than 25 µM in [7].
As to `COc1ccc(/C=C/C(=O)c2ccc(NC(=O)CSc3nnc(-c4cc(OC)c(OC)c(OC)c4)o3)cc2)cc1`, the GI50 in [1] is 1.94 µM; in assay [2], 1.77 µM; in assay [8] it was 2 µM; in assay [3], 1.77 µM; in [4], 2.13 µM; in assay [5] it was 1.79 µM. Further, the GI50 was 1.84 µM in assay [6], 1.63 µM in assay [9] and 1.86 µM in [10]. Moreover, the total growth inhibition concentration (TGI) is 3.84 µM in assay [1]; 3.35 µM in assay [2]; 4.62 µM in assay [8]; 3.4 µM in [3]; 4.53 µM in assay [4]; 3.96 µM in assay [5]. The TGI in assay [6] was 3.53 µM; in [9] it was 3.22 µM; in assay [10], 4.01 µM.
For the compound `COc1cc([C@@H]2c3cc4c(cc3[C@@H](NC(=O)c3ccc([N+](=O)[O-])cc3)C3COC(=O)[C@@H]32)OCO4)cc(OC)c1O` (stereo partly drawn), the TGI in [1] was 10.4 µM; in [2], 11.5 µM; in assay [8], greater than 100 µM; in assay [3], 4.19 µM; in assay [4], 1.12 µM; in [5], 5.77 µM. In addition, the TGI in [6] stood at 1.53 µM; in [9], 6.43 µM; in assay [7], 6.55 µM.
For the compound `CC(C)(C)C1CCN(C(=O)c2ccccc2)CC1`, the TGI in assay [1], in assay [2], in assay [3], in assay [4], in assay [6] and in assay [9] was greater than 100 µM each time. The TGI in assay [10] and in [7] was greater than 100 µM in each case.
As to `Cn1cc(C2=C(c3cccc(NCC(O)CO)c3)C(=O)NC2=O)c2cc(Cl)ccc21` (stereo not drawn), the GI50 in assay [1] is 2.74 µM; in assay [2] it was 0.237 µM; in [8] it was 1.87 µM; in assay [3], 2.45 µM; in assay [4] it was 4.9 µM; in assay [5], 4.46 µM. Also, the GI50 is 4.74 µM in [6], 5.97 µM in assay [9] and 3.03 µM in assay [10]. Also, the TGI came out at 6.17 µM in [1]; 8.94 µM in assay [2]; 11.6 µM in assay [8]; 9.5 µM in assay [3]; 18 µM in assay [4]; 10.5 µM in assay [5]. Moreover, the total growth inhibition concentration (TGI) in [6] is 17.6 µM; in assay [9], greater than 25 µM; in assay [10], greater than 25 µM.
With `COc1ccc(/C=C2\CCCC3=C2N=C2SC=NN2C3c2ccc(OC)c(OC)c2)cc1OC` (stereo not drawn), the GI50 in assay [1] was 7.58 µM; in assay [2], 32.7 µM; in [3], 11.8 µM; in assay [4] it was 24.3 µM; in [5] it was 19.9 µM; in assay [6], 30.5 µM. Further, the GI50 in [9] was 5.58 µM; in assay [10], 5.65 µM. Moreover, the total growth inhibition concentration (TGI) in [1], in [2], in [3], in [4], in assay [5] and in [6] was greater than 100 µM each time. For the same compound, the values for the TGI in [9] and in assay [10] were 60.5 µM and 66.1 µM, respectively.
`COc1cc2c3c(n(CCCN4CCOCC4)c(=O)c2cc1OC)-c1cc2c(cc1C3=O)OCO2`: the GI50 was 40.4 µM in assay [1]; 0.137 µM in assay [2]; 51 µM in assay [8]; 32.4 µM in assay [3]; 1.86 µM in [4]; 0.954 µM in assay [5]. The GI50 in [6] was 3.43 µM; in assay [9] it was 17.4 µM; in assay [7] it was 50.9 µM. For the same compound, the concentration for total growth inhibition (TGI) in assay [1] is greater than 100 µM; in assay [2], greater than 38.8 µM; in assay [8], greater than 100 µM; in [3] it was greater than 100 µM; in assay [4], 55.7 µM; in assay [5], greater than 100 µM. The TGI in assay [6], in assay [9] and in assay [7] was greater than 100 µM throughout.
For the compound `C#Cc1ccc(-n2c(/C=C/c3ccc4ccccc4n3)nc3ncccc3c2=O)cc1`, the concentration for 50% growth inhibition (GI50) is 0.3 µM in [1]; 0.386 µM in [2]; 0.315 µM in assay [8]; 0.359 µM in assay [3]; 0.85 µM in assay [4]; 0.488 µM in [5]. Moreover, the concentration for 50% growth inhibition (GI50) in assay [6] was 0.353 µM. The TGI turned out to be 0.734 µM in assay [1]; 1.52 µM in assay [2]; 1.81 µM in [8]; 1.26 µM in assay [3]; 2.36 µM in assay [4]; 2.33 µM in [5]. In addition, in assay [6], the concentration for total growth inhibition (TGI) was 1.83 µM.
